Values joined by “and” are separate entries in the source; they are usually repeats but may differ in a detail not shown here. Equal values may be shown once. Read-outs that look alike come from different tables or passages of the source.
What was measured:
[1] = biological target: T1, urease (Proteus mirabilis, UniProt P17086+P17087+P17088); format: biochemical
T1 construct: endogenous in cells

[2] = biological target: T2, urease (Pseudomonas aeruginosa, UniProt Q9HUU5+Q9HUU6+Q9HUU8); test: Urease activity of extracted P. aeruginosa urease (in vitro); format: biochemical
T2 construct: endogenous in cells
T2 sequence (Q9HUU6 whole entry): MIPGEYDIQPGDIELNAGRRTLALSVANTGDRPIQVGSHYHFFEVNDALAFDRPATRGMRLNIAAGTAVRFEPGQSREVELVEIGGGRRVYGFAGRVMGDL
T2 sequence (Q9HUU5 whole entry): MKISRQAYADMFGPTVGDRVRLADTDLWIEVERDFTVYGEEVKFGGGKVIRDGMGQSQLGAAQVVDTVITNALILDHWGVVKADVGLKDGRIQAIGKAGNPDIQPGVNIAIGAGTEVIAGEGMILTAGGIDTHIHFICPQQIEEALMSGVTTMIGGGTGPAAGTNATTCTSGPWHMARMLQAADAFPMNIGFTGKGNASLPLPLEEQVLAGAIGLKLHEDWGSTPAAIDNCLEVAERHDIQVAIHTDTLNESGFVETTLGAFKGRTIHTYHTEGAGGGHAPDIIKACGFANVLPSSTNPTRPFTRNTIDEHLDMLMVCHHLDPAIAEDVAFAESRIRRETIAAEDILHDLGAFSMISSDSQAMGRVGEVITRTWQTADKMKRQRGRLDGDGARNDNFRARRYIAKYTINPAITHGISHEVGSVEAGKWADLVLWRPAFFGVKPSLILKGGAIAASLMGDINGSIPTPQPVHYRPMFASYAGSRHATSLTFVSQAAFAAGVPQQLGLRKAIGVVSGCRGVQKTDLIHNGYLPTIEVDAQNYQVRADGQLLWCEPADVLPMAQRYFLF
T2 sequence (Q9HUU8 whole entry): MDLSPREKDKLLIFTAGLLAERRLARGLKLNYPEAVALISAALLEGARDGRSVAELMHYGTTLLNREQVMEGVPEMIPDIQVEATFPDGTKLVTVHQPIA

[3] = tested on: urease
[4] = tested on: urease; remark: listed apart in the source
[5] = tested on: urease; remark: listed apart in the source
[6] = tested on: urease; remark: listed apart in the source
[7] = tested on: AGS cells exposed to H. pylori; test: Cell infection model: AGS cells exposed to H. pylori pre-cultured with inhibitors; format: cell-based, human; conditions: H. pylori pre-cultured with 10 μM inhibitor 24 h; MOI 20; 24 h infection; Hp alone 28.8%
[8] = tested on: AGS cells with H. pylori infection; test: AGS cells with H. pylori infection, inhibitors administrated to the AGS cells (S20 Fig); format: cell-based, human; conditions: 10 μM administrated to AGS cells with H. pylori infection
Text: As expected, low viability of AGS with the supplement of cmpd4 and cmpd8 was observed due to the toxicity of small compounds to mammalian cells. […] (PNG) Click here for additional data file.

[9] = biological target: H. pylori urease (Helicobacter pylori, UniProt P14916+P69996); format: biochemical; design: endogenous in cells; host or cells: H. pylori strain 26695 or a clinical isolate
Sequence of H. pylori urease (Helicobacter pylori, UniProt P14916+P69996) (P69996 whole entry): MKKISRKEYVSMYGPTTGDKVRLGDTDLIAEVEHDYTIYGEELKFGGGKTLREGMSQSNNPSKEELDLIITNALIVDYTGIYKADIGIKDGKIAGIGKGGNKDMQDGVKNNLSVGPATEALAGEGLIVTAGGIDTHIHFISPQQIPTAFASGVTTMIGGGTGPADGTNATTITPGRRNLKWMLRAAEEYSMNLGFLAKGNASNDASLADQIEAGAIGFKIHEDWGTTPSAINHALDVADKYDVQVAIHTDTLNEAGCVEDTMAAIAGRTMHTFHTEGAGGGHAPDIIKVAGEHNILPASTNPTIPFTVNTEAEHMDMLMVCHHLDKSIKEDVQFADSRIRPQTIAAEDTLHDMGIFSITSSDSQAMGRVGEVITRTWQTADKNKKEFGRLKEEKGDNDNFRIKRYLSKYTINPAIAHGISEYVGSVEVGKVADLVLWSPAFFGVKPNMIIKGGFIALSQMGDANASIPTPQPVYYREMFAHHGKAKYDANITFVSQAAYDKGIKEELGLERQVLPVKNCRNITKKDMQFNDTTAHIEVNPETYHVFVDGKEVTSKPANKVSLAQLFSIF
Sequence of H. pylori urease (Helicobacter pylori, UniProt P14916+P69996) (P14916 whole entry): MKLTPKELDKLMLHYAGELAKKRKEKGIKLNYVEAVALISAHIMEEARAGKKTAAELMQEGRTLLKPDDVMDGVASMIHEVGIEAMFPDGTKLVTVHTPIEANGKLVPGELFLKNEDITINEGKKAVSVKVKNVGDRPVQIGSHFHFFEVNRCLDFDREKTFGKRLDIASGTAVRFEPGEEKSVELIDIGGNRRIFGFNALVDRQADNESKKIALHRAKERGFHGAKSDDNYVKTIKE

[10] = biological target: UreG (Helicobacter pylori, UniProt Q09066); test: Fluorescence-quenching titration of UreG (Kd); format: binding, H. pylori
Sequence of UreG (Q09066 whole entry): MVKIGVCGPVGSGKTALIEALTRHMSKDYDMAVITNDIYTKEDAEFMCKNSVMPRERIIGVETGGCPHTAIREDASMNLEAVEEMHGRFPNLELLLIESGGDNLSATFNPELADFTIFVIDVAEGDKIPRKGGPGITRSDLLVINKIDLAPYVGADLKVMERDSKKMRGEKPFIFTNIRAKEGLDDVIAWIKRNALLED
Method: Using the relation between the emission intensity at 310 nm and molecule-UreG–bound species, as well as one site-binding model, the Kd values were calculated by a logistic regression model referring to a previous report. […] All fluorescence readings were corrected for the dilution effect.

[11] = tested on: H. pylori urease; conditions: for Normalized urease activity(%): 40 min
Text: The starting sample with 20% urease activity was used. […] Because zero is not defined on a log scale, the blank values have been entered as 0.1.

T1 sequence (P17087 whole entry): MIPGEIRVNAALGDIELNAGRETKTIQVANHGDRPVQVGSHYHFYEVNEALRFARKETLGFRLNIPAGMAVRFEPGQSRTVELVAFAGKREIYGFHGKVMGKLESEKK
T1 sequence (P17088 whole entry): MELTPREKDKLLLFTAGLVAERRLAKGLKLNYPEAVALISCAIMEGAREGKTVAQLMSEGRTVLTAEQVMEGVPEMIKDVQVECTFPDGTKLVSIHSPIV
T1 sequence (P17086 whole entry): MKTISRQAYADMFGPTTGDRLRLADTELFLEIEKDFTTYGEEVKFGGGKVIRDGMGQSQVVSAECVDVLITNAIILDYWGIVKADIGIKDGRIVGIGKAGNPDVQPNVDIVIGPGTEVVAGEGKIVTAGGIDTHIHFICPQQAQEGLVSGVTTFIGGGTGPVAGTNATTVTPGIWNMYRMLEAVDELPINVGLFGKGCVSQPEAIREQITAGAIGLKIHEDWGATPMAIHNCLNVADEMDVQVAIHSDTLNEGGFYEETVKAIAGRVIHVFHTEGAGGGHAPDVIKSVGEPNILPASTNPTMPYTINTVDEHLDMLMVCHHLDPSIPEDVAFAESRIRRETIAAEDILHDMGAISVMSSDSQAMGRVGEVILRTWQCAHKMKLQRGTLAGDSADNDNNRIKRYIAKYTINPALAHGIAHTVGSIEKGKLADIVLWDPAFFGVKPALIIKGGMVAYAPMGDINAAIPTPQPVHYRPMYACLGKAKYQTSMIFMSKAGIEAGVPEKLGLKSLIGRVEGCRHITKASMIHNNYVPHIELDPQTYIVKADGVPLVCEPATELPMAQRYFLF

Structure (SMILES): CC(=O)NO [AHA, acetohydroxamic acid]
- Normalized urease activity(%) ([1]; log(AHA[μM]) 1.29073): 83.9311%
- Normalized urease activity(%) ([1]; log(AHA[μM]) 1.59176): 78.3381%
- Normalized urease activity(%) ([1]; log(AHA[μM]) 1.89279): 61.9141%
- Normalized urease activity(%) ([1]; log(AHA[μM]) 2.19382): 45.934%
- Normalized urease activity(%) ([1]; log(AHA[μM]) 2.49485): 31.2855%
- Normalized urease activity(%) ([1]; log(AHA[μM]) 2.79588): 25.6037%
- Normalized urease activity(%) ([1]; log(AHA[μM]) 3.09691): 17.6136%
- Normalized urease activity(%) ([1]; log(AHA[μM]) 3.39794): 16.1932%
- Normalized urease activity(%) ([1]; log(AHA[μM]) 3.69897): 12.3757%
- Normalized urease activity(%) ([1]; log(AHA[μM]) 4): 7.315%
- Normalized urease activity(%) ([2]; log(AHA[μM]) 1.79588): 78.186%
- Normalized urease activity(%) ([2]; log(AHA[μM]) 2.09691): 95.4076%
- Normalized urease activity(%) ([2]; log(AHA[μM]) 2.39794): 91.1022%
- Normalized urease activity(%) ([2]; log(AHA[μM]) 2.69897): 92.2503%
- Normalized urease activity(%) ([2]; log(AHA[μM]) 3): 91.3892%
- Normalized urease activity(%) ([2]; log(AHA[μM]) 3.30103): 81.0563%
- Normalized urease activity(%) ([2]; log(AHA[μM]) 3.60206): 50.3444%
- Normalized urease activity(%) ([2]; log(AHA[μM]) 3.90309): 18.7715%
- Normalized urease activity(%) ([2]; log(AHA[μM]) 4.20412): 5.568%
- Normalized urease activity(%) ([2]; log(AHA[μM]) 4.50515): 3.846%
- Normalized urease activity(%) ([3]; log(AHA[μM]) 1.39794): 85.3556%
- Normalized urease activity(%) ([3]; log(AHA[μM]) 2.09691): 97.9079%
- Normalized urease activity(%) ([3]; log(AHA[μM]) 2.39794): 94.4212%
- Normalized urease activity(%) ([3]; log(AHA[μM]) 2.69897): 97.2106%
- Normalized urease activity(%) ([3]; log(AHA[μM]) 3): 105.579%
- Normalized urease activity(%) ([3]; log(AHA[μM]) 3.30103): 100%
- Normalized urease activity(%) ([3]; log(AHA[μM]) 3.60206): 74.198%
- Normalized urease activity(%) ([3]; log(AHA[μM]) 3.90309): 38.6332%
- Normalized urease activity(%) ([3]; log(AHA[μM]) 4.20412): 16.318%
- Normalized urease activity(%) ([3]; log(AHA[μM]) 4.50515): 9.344%
- Normalized urease activity(%) ([4]; log(AHA[μM]) 1.79588): 92.5521%
- Normalized urease activity(%) ([4]; log(AHA[μM]) 2.09691): 93.0486%
- Normalized urease activity(%) ([4]; log(AHA[μM]) 2.39794): 89.0764%
- Normalized urease activity(%) ([4]; log(AHA[μM]) 2.69897): 86.0973%
- Normalized urease activity(%) ([4]; log(AHA[μM]) 3): 82.6216%
- Normalized urease activity(%) ([4]; log(AHA[μM]) 3.30103): 72.6911%
- Normalized urease activity(%) ([4]; log(AHA[μM]) 3.60206): 51.3406%
- Normalized urease activity(%) ([4]; log(AHA[μM]) 3.90309): 15.0943%
- Normalized urease activity(%) ([4]; log(AHA[μM]) 4.20412): 3.674%
- Normalized urease activity(%) ([4]; log(AHA[μM]) 4.50515): 1.688%
- Normalized urease activity(%) ([5]; log(AHA[μM]) 1.79588): 92.1939%
- Normalized urease activity(%) ([5]; log(AHA[μM]) 2.09691): 91.7831%
- Normalized urease activity(%) ([5]; log(AHA[μM]) 2.39794): 89.7288%
- Normalized urease activity(%) ([5]; log(AHA[μM]) 2.69897): 88.9071%
- Normalized urease activity(%) ([5]; log(AHA[μM]) 3): 90.1397%
- Normalized urease activity(%) ([5]; log(AHA[μM]) 3.30103): 80.6902%
- Normalized urease activity(%) ([5]; log(AHA[μM]) 3.60206): 55.6286%
- Normalized urease activity(%) ([5]; log(AHA[μM]) 3.90309): 27.691%
- Normalized urease activity(%) ([5]; log(AHA[μM]) 4.20412): 14.1331%
- Normalized urease activity(%) ([5]; log(AHA[μM]) 4.50515): 10.8463%
- Normalized urease activity(%) ([6]; log(AHA[μM]) 1.79588): 82.0618%
- Normalized urease activity(%) ([6]; log(AHA[μM]) 2.09691): 76.8393%
- Normalized urease activity(%) ([6]; log(AHA[μM]) 2.39794): 67.9837%
- Normalized urease activity(%) ([6]; log(AHA[μM]) 2.69897): 58.901%
- Normalized urease activity(%) ([6]; log(AHA[μM]) 3): 52.7702%
- Normalized urease activity(%) ([6]; log(AHA[μM]) 3.30103): 45.277%
- Normalized urease activity(%) ([6]; log(AHA[μM]) 3.60206): 27.5659%
- Normalized urease activity(%) ([6]; log(AHA[μM]) 3.90309): 11.6712%
- Normalized urease activity(%) ([6]; log(AHA[μM]) 4.20412): 3.951%
- Normalized urease activity(%) ([6]; log(AHA[μM]) 4.50515): 2.589%
- Normalized cell survival (%) [7]: 40.5% ± 8.2% and 40.5405%
- Ammonia in medium [8]: 2.273 mM
- Normalized cell survival (%) [8]: 14.4144%
- IC50 ([9]; AHA incubated with extracted urease, ± SD): 1.32 ± 0.291 mM
- Normalized urease activity(%) (AHA) ([9]; AHA log[μM] 1.89279): 109.4% and 109.395%
- Normalized urease activity(%) (AHA) ([9]; AHA log[μM] 2.19382): 96.0% and 96.0334%
- Normalized urease activity(%) (AHA) ([9]; AHA log[μM] 2.49485): 91.9% and 91.858%
- Normalized urease activity(%) (AHA) ([9]; AHA log[μM] 2.79588): 93.3% and 93.3194%
- Normalized urease activity(%) (AHA) ([9]; AHA log[μM] 3.09691): 51.1% and 51.1482%
- Normalized urease activity(%) (AHA) ([9]; AHA log[μM] 3.39794): 20.5% and 20.4593%
- Normalized urease activity(%) (AHA) ([9]; AHA log[μM] 3.69897): 2.7% and 2.714%
- Normalized urease activity(%) (AHA) ([9]; AHA log[μM] 4): 1.3% and 1.253%
- Normalized urease activity(%) (AHA) ([9]; AHA log[μM] 4.30103): 1.3% and 1.253%

Structure (SMILES): Nc1nc2c(ncn2[C@@H]2O[C@H](COP(=O)(O)OP(=O)(O)OP(=O)(O)O)[C@@H](O)[C@H]2O)c(=O)[nH]1 [GTP, guanosine-5'-triphosphate, reference compound]
- Kd [10]: ~65 µM
- fluorescence intensity (a.u.) ([10]; log(ligand[μM]) 0): 3320 a.u.
- fluorescence intensity (a.u.) ([10]; log(ligand[μM]) 0.30103): 3210 a.u.
- fluorescence intensity (a.u.) ([10]; log(ligand[μM]) 0.60206): 2994.67 a.u.
- fluorescence intensity (a.u.) ([10]; log(ligand[μM]) 0.90309): 2943.33 a.u.
- fluorescence intensity (a.u.) ([10]; log(ligand[μM]) 1.20412): 2860.67 a.u.
- fluorescence intensity (a.u.) ([10]; log(ligand[μM]) 1.50515): 2655 a.u.
- fluorescence intensity (a.u.) ([10]; log(ligand[μM]) 1.80618): 2320.33 a.u.
- fluorescence intensity (a.u.) ([10]; log(ligand[μM]) 2.10721): 1866.33 a.u.
- fluorescence intensity (a.u.) ([10]; log(ligand[μM]) -1.30103): 3394.33 a.u.

Structure (SMILES): [Ni+2] [Ni]
- Normalized urease activity(%) ([11]; supplement 0.05 (head prints CBS(μM )), starting sample 20% activity): 19.0%
- Normalized urease activity(%) ([11]; supplement 0.1 (head prints CBS(μM ))): 18.6%
- Normalized urease activity(%) ([11]; supplement 0.2 (head prints CBS(μM ))): 18.3%
- Normalized urease activity(%) ([11]; supplement 0.4 (head prints CBS(μM ))): 17.5%
- restoration of urease activity ([11]; supplemented to CBS-treated bacterial cell lysate): failed to restore the urease activity completely

From article PMC5779714, “Metallochaperone UreG serves as a new target for design of urease inhibitor: A novel strategy for development of antimicrobials” (PLoS Biology, 2018)
